In experiment [1] the test system is neutrophils. The experiment in a line: Activation of neutrophils (CD64, CD66b flow cytometry). The note with it: LCC-12 10 μM, 1 h, LPS; FIG. 6C. Format: cell-based, human. As to the method:
Neutrophils. Peripheral blood samples were collected from healthy donors (Etablissement Français du Sang). Then, red cells in whole blood samples were lysed (ebioscience 10×RBC lysis buffer, 00-4300-54). The remaining cells were cultured in RPMI 1640 supplemented with glutamine, and 2% human serum, and activated 1 h with LPS (2 μg/mL) in presence of LCC-12 (10 μM). The granulocytes/neutrophils population was determined by flow cytometry using FSC, SSC and CD15 surface marker. The activation status of the granulocytes was assessed by measuring CD64 and CD66b surface markers by flow cytometry.

For experiment [2], the system named is dendritic cells. The experiment in a line: Activation of dendritic cells (CD40, CD83, CD80, CD86 flow cytometry). Format: cell-based, human. The note with it: LCC-12 10 μM, 24 h, LPS; FIG. 6E. As to the method: Dendritic cells. Peripheral blood samples were collected from healthy donors (Etablissement Français du Sang). Pan monocytes were isolated by negative magnetic sorting using microbeads according to the manufacturer's instructions (Miltenyi Biotec, 130-096-537), and cultured in RPMI 1640 supplemented with glutamine, 10% fetal bovine serum and treated with granulocyte-macrophage colony-stimulating factor (GM-CSF, 100 ng/mL) and IL-4 (10 ng/mL) to induce differentiation into dendritic cells (DC). At day 5 of differentiation, DC were treated with lipopolysaccharides (LPS, 100 ng/mL, 24 h) to generate activated DC and were co-treated with LCC-12 (in-house, 10 μM, 24 h). The activation status of the dendritic cells was assessed by measuring CD40, CD83, CD80 and CD86 surface markers by flow cytometry.

The test system of experiment [3] is mice challenged by cecal ligation and puncture. The experiment in a line: Murine model of sepsis using cecal ligation and puncture (CLP). Format: in vivo, BALB/c mice. On the procedure: Murine model of sepsis using cecal ligation and puncture. All animal-related research is conducted in accordance with 2010/63/EU and National legislation regulating the use of laboratory animals in scientific research and for other purposes (Official Gazette 55/13). An Institutional Committee on Animal Research Ethics (CEEA-047) oversees that animal-related procedures are not compromising the animal welfare. 9 weeks-old male BALB/c mice were used for these experiments. Animals were anesthetized by isoflurane (Forene). After abdominal incision, the cecum was ligated, punctured with a gauge needle (25G or 21G), and a small amount of fecal matter was released. After the cecum was returned to the abdomen, the abdominal cavity was closed in two layers and the mice were resuscitated with 30 mL/kg body weight of saline (0.9% NaCl) administered subcutaneously. For the sham group, after abdominal incision, the cecum was manipulated but was neither ligated nor punctured. After the cecum was returned to the abdomen, the abdominal cavity was closed in two layers and the mice were resuscitated with 30 mL/kg body weight of saline administered subcutaneously. LCC-12 (0.3 mg/kg, IP) was administered at 0.3 mg/kg dose 4 h, 24 h, 48 h, 72 h and 96 h following CLP creation. Mortality incidence was monitored every 2 h up to 120 h (except from 10 pm to 6 am) post CLP creation. Dexamethasone was administered intraperitoneally at 1 mg/kg dose 5-minutes prior CLP creation.

Experiment [4] relates to HMLER CD44^high/CD24^low. Briefly: Cell viability assay (CellTiter-Blue) on breast cancer stem cell model HMLER CD44high/CD24low. Format: cell-based, human. As to the method:
Cell viability assay (IC50). Cell viability assay was carried out by plating 1000 cells/well in 96-well plates. Cells were treated for 72 h in a range between to 25 nM and […] using serial dilutions. The inventors followed the manufacturer's protocol. In brief, CellTiter-Blue® reagent (G8081, Promega) was added after 72 h treatment and cells were incubated for 3 h before recording fluorescence intensities (λex. 560/20 nm; λem. 590/10 nm) using a Perkin Elmer Wallac 1420 Victor2 Microplate Reader.
Cell culture. MCF7 (ATCC) cells, DU-145 (ATCC) cells and FC1245 cells were cultured in Dulbecco's Modified Eagle Medium GlutaMAX (DMEM, ThermoFisher Scientific, 61965059) supplemented with 10% Fetal Bovine Serum (FBS, Gibco, 10270-106) and Penicillin-Streptomycin mixture (BioWhittaker/Lonza, DE17-602E) unless stated otherwise. Primary lung circulating tumor cells (Celprogen, 36107-34CTC, Lot 219411) were grown using stem cell complete media (Celprogen, M36102-29PS) until the third passage. Circulating cancer cells were grown in stem cell ECM T75-flasks (Celprogen, E36102-29-T75) and ECM 6-well plates (Celprogen, E36102-29-6Well). HMLER cells ([…]) naturally repressing E-cadherin, obtained from human mammary epithelial cells infected with a retrovirus carrying hTERT, SV40 and the oncogenic allele H-rasV12, and HMLER CD44 and TFRC ko clones were cultured in DMEM/F12 (Thermo Fisher Scientific, 31331093) supplemented with 10% FBS (Thermo Fisher Scientific, 10270106), 10 μg/mL insulin (Sigma-Aldrich, 10516), 0.5 μg/mL hydrocortisone (Sigma-Aldrich, H0888) and 0.5 μg/mL puromycin (Life Technologies, A11138-02), unless stated otherwise. HMLER CD44^high cells were also supplemented with 10 ng/mL EGF (Miltenyi Biotech, 130-097-750).
(In general: The colour change of resazurin is a common sign of viable cells or microbes.)

The subject of experiment [5] is U937 cells. The experiment in a line: Cell viability assay (CellTiter-Blue) on lymphoma cell line U937. Format: cell-based. Conditions: Homo sapiens, U-937, 72 h treatment. As to the method: Cell culture. U-937 cells were grown in an incubator equilibrated at 37° C. with 5% CO2, grown to confluence and split with Trypsin/EDTA (Gibco, […]01) once or twice a week according to confluence. U-937 (ATCC, HTB-132) were cultured in RPMI 1640 GLUTAMAX (ThermoFisher Scientific, 61870044) supplemented with 10% Fetal Bovine Serum (FBS, Gibco, 10270-106) and Penicillin-Streptomycin mixture (BioWhittaker/Lonza, DE17-602E). […] Peripheral blood samples were collected from distinct healthy donors (Etablissement Français du Sang). Pan monocytes were isolated by negative magnetic sorting using microbeads according to the manufacturer's instructions (Miltenyi Biotec, 130-096-537), and cultured in RPMI 1640 supplemented with glutamine (Thermo Fisher Scientific, 61870010), 10% fetal bovine serum and exposed to granulocyte-macrophage colony-stimulating factor (GM-CSF, Miltenyi Biotec, 130-093-866, 100 ng/mL) to induce differentiation into macrophages (MDM). […] Cell viability assay (IC50). Cell viability assay was carried out by plating 1000 cells/well in 96-well plates. Cells were treated for 72 h in a range between to 25 nM and […] using serial dilutions. The inventors followed the manufacturer's protocol. In brief, CellTiter-Blue® reagent (G8081, Promega) was added after 72 h treatment and cells were incubated for 3 h before recording fluorescence intensities (λex. 560/20 nm; λem. 590/10 nm) using a Perkin Elmer Wallac 1420 Victor2 Microplate Reader.

As for `N=C(N)NC(=N)NCCCCCCCCCCCCNC(=N)NC(=N)N` [LCC-12, lipophilic copper clamp C12], the “activation of neutrophils in vitro” value in experiment [1] was “does not impact the activation”. Further, the “activation of dendritic cells” value in experiment [2] is listed as “decreases the activation”. Besides, the “survival in CLP sepsis” value in experiment [3] (21G needle, LCC-12 0.3 mg/kg IP, FIG. 5A) is “delayed death and increased survival rate”. Moreover, in experiment [3] (25G needle, LCC-12 0.3 mg/kg IP, FIG. 5C), the “body weight loss in CLP-induced sublethal sepsis” value is “reduced body weight loss”. Also, the “overall gravity score of symptoms in CLP-induced sublethal sepsis” value in experiment [3] (25G needle, LCC-12 0.3 mg/kg IP, FIG. 5D) is “improved the overall gravity score of symptoms”. Besides, the “symptoms of sepsis compared to dexamethasone” value in experiment [3] (CLP, throughout the treatments) was “considerably attenuated the symptoms of sepsis compared to dexamethasone”. Moreover, the “improved IC50 compared with metformin” value in experiment [4] (HMLER CD44high/CD24low) is reported as “more than 2800 fold”. The IC50 in experiment [4] (Homo sapiens, cell viability, 72 h treatment, read-out: IC50 against HMLER CD44^high/CD24^low) was determined as 8 µM; in experiment [5], 2 µM.

Values taken from patent US20230416196A1, “DIMER OF BIGUANIDINES AND THEIR THERAPEUTIC USES” (INSTITUT CURIE, priority 2020, published 2023).
